Test results taken from the supplement of paper PMC10307832.

Key:
Assay in all cases: relative viability (nuclei count vs DMSO), 5 days (fraction); higher = more cells survive
HCC-366 = test system: HCC-366
Summary of the method: (§1)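 A single step with final 0.05% Triton X-100, 1% formaldehyde and 1 ug/ml Hoechst fixed the cells and stained nuclei 5 days after treatment. Lung cancer cell lines in 1536-well plates had been treated by pin tool the day after seeding with one drug alone or a fixed anchor-drug dose plus five library-drug doses (not always all listed) in √10 steps, and nuclei were counted on 4× images. Relative viability is the ratio of nuclei in treated wells to nuclei in vehicle wells, taken as the median of duplicate plates.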

NCI-H1975 = test system: NCI-H1975
Summary of the method: as §1

NCI-H1734 = test system: NCI-H1734
Summary of the method: as §1

LOU-NH91 = test system: LOU-NH91
Summary of the method: as §1

NCI-H2085 = test system: NCI-H2085
Summary of the method: as §1

NCI-H1355 = test system: NCI-H1355
Summary of the method: as §1

CAL-12T = test system: CAL-12T
Summary of the method: as §1

HCC-44 = test system: HCC-44
Summary of the method: as §1

NCI-H1395 = test system: NCI-H1395
Summary of the method: as §1

NCI-H1650 = test system: NCI-H1650
Summary of the method: as §1

LU99A = test system: LU99A
Summary of the method: as §1

NCI-H1437 = test system: NCI-H1437
Summary of the method: as §1

NCI-H1755 = test system: NCI-H1755
Summary of the method: as §1

NCI-H838 = test system: NCI-H838
Summary of the method: as §1

BEN = test system: BEN
Summary of the method: as §1

NCI-H2023 = test system: NCI-H2023
Summary of the method: as §1

NCI-H1563 = test system: NCI-H1563
Summary of the method: as §1

EKVX = test system: EKVX
Summary of the method: as §1

NCI-H358 = test system: NCI-H358
Summary of the method: as §1

NCI-H1651 = test system: NCI-H1651
Summary of the method: as §1

NCI-H441 = test system: NCI-H441
Summary of the method: as §1

NCI-H2342 = test system: NCI-H2342
Summary of the method: as §1

NCI-H460 = test system: NCI-H460
Summary of the method: as §1

CC1(C)CCC(c2ccc(Cl)cc2)=C(CN2CCN(c3ccc(C(=O)NS(=O)(=O)c4ccc(N[C@H](CCN5CCOCC5)CSc5ccccc5)c(S(=O)(=O)C(F)(F)F)c4)cc3)CC2)C1 [Navitoclax] + Nc1nc2[nH]cc(CCc3ccc(C(=O)N[C@@H](CCC(=O)O)C(=O)O)cc3)c2c(=O)[nH]1 [Pemetrexed] (partner 0.2 µM)
relative viability (HCC-366; first compound 0.005 µM): 0.136 | relative viability (HCC-366; first compound 0.01581 µM): 0.167 | relative viability (HCC-366; first compound 0.1581 µM): 0.175 | relative viability (HCC-366; first compound 0.5 µM): 0.145 | relative viability (NCI-H1975; first compound 0.005 µM): 0.292 | relative viability (NCI-H1975; first compound 0.01581 µM): 0.312 | relative viability (NCI-H1975; first compound 0.05 µM): 0.343 | relative viability (NCI-H1975; first compound 0.1581 µM): 0.301 | relative viability (NCI-H1975; first compound 0.5 µM): 0.299 | relative viability (NCI-H1734; first compound 0.005 µM): 0.394 | relative viability (NCI-H1734; first compound 0.01581 µM): 0.421 | relative viability (NCI-H1734; first compound 0.1581 µM): 0.367 | relative viability (NCI-H1734; first compound 0.5 µM): 0.381 | relative viability (LOU-NH91; first compound 0.005 µM): 0.308 | relative viability (LOU-NH91; first compound 0.01581 µM): 0.304 | relative viability (LOU-NH91; first compound 0.05 µM): 0.26 | relative viability (LOU-NH91; first compound 0.1581 µM): 0.285 | relative viability (LOU-NH91; first compound 0.5 µM): 0.219 | relative viability (NCI-H2085; first compound 0.005 µM): 0.812 | relative viability (NCI-H2085; first compound 0.01581 µM): 1.2 | relative viability (NCI-H2085; first compound 0.05 µM): 0.852 | relative viability (NCI-H2085; first compound 0.1581 µM): 0.931 | relative viability (NCI-H2085; first compound 0.5 µM): 0.894 | relative viability (NCI-H1355; first compound 0.005 µM): 0.998 | relative viability (NCI-H1355; first compound 0.01581 µM): 1.05 | relative viability (NCI-H1355; first compound 0.05 µM): 1.11 | relative viability (NCI-H1355; first compound 0.1581 µM): 1.03 | relative viability (NCI-H1355; first compound 0.5 µM): 1.07 | relative viability (CAL-12T; first compound 0.005 µM): 1.23 | relative viability (CAL-12T; first compound 0.01581 µM): 1.34 | relative viability (CAL-12T; first compound 0.05 µM): 1.23 | relative viability (CAL-12T; first compound 0.1581 µM): 1.23 | relative viability (CAL-12T; first compound 0.5 µM): 1.25 | relative viability (HCC-44; first compound 0.005 µM): 0.633 | relative viability (HCC-44; first compound 0.01581 µM): 0.65 | relative viability (HCC-44; first compound 0.05 µM): 0.625 | relative viability (HCC-44; first compound 0.1581 µM): 0.603 | relative viability (HCC-44; first compound 0.5 µM): 0.558 | relative viability (NCI-H1395; first compound 0.005 µM): 0.763 | relative viability (NCI-H1395; first compound 0.01581 µM): 0.853 | relative viability (NCI-H1395; first compound 0.05 µM): 0.94 | relative viability (NCI-H1395; first compound 0.1581 µM): 0.86 | relative viability (NCI-H1395; first compound 0.5 µM): 0.913 | relative viability (NCI-H1650; first compound 0.005 µM): 0.365 | relative viability (NCI-H1650; first compound 0.01581 µM): 0.412 | relative viability (NCI-H1650; first compound 0.05 µM): 0.298 | relative viability (NCI-H1650; first compound 0.1581 µM): 0.347 | relative viability (NCI-H1650; first compound 0.5 µM): 0.334 | relative viability (LU99A; first compound 0.005 µM): 0.202 | relative viability (LU99A; first compound 0.01581 µM): 0.205 | relative viability (LU99A; first compound 0.1581 µM): 0.196 | relative viability (LU99A; first compound 0.5 µM): 0.167 | relative viability (NCI-H1437; first compound 0.005 µM): 0.287 | relative viability (NCI-H1437; first compound 0.01581 µM): 0.336 | relative viability (NCI-H1437; first compound 0.05 µM): 0.282 | relative viability (NCI-H1437; first compound 0.1581 µM): 0.311 | relative viability (NCI-H1437; first compound 0.5 µM): 0.356 | relative viability (NCI-H1755; first compound 0.005 µM): 0.371 | relative viability (NCI-H1755; first compound 0.01581 µM): 0.419 | relative viability (NCI-H1755; first compound 0.05 µM): 0.426 | relative viability (NCI-H1755; first compound 0.1581 µM): 0.351 | relative viability (NCI-H1755; first compound 0.5 µM): 0.433 | relative viability (NCI-H838; first compound 0.005 µM): 0.242 | relative viability (NCI-H838; first compound 0.01581 µM): 0.254 | relative viability (NCI-H838; first compound 0.05 µM): 0.28 | relative viability (NCI-H838; first compound 0.1581 µM): 0.266 | relative viability (NCI-H838; first compound 0.5 µM): 0.244 | relative viability (BEN; first compound 0.005 µM): 0.781 | relative viability (BEN; first compound 0.01581 µM): 0.841 | relative viability (BEN; first compound 0.05 µM): 0.74 | relative viability (BEN; first compound 0.1581 µM): 0.803 | relative viability (BEN; first compound 0.5 µM): 0.418 | relative viability (NCI-H2023; first compound 0.005 µM): 0.229 | relative viability (NCI-H2023; first compound 0.01581 µM): 0.236 | relative viability (NCI-H2023; first compound 0.05 µM): 0.258 | relative viability (NCI-H2023; first compound 0.1581 µM): 0.214 | relative viability (NCI-H2023; first compound 0.5 µM): 0.201 | relative viability (NCI-H1563; first compound 0.005 µM): 0.656 | relative viability (NCI-H1563; first compound 0.01581 µM): 0.739 | relative viability (NCI-H1563; first compound 0.05 µM): 0.608 | relative viability (NCI-H1563; first compound 0.1581 µM): 0.805 | relative viability (NCI-H1563; first compound 0.5 µM): 0.861 | relative viability (EKVX; first compound 0.005 µM): 0.433 | relative viability (EKVX; first compound 0.01581 µM): 0.389 | relative viability (EKVX; first compound 0.05 µM): 0.4 | relative viability (EKVX; first compound 0.1581 µM): 0.387 | relative viability (EKVX; first compound 0.5 µM): 0.366 | relative viability (NCI-H358; first compound 0.005 µM): 0.17 | relative viability (NCI-H358; first compound 0.01581 µM): 0.173 | relative viability (NCI-H358; first compound 0.05 µM): 0.167 | relative viability (NCI-H358; first compound 0.1581 µM): 0.165 | relative viability (NCI-H358; first compound 0.5 µM): 0.187 | relative viability (NCI-H1651; first compound 0.005 µM): 0.682 | relative viability (NCI-H1651; first compound 0.01581 µM): 0.552 | relative viability (NCI-H1651; first compound 0.05 µM): 0.503 | relative viability (NCI-H1651; first compound 0.1581 µM): 0.633 | relative viability (NCI-H1651; first compound 0.5 µM): 0.548 | relative viability (NCI-H441; first compound 0.005 µM): 0.238 | relative viability (NCI-H441; first compound 0.01581 µM): 0.24 | relative viability (NCI-H441; first compound 0.05 µM): 0.258 | relative viability (NCI-H441; first compound 0.1581 µM): 0.232 | relative viability (NCI-H441; first compound 0.5 µM): 0.296 | relative viability (NCI-H2342; first compound 0.005 µM): 0.818 | relative viability (NCI-H2342; first compound 0.01581 µM): 0.81 | relative viability (NCI-H2342; first compound 0.05 µM): 0.805 | relative viability (NCI-H2342; first compound 0.1581 µM): 0.719 | relative viability (NCI-H2342; first compound 0.5 µM): 0.763 | relative viability (NCI-H460; first compound 0.005 µM): 0.0632 | relative viability (NCI-H460; first compound 0.01581 µM): 0.067 | relative viability (NCI-H460; first compound 0.05 µM): 0.0532 | relative viability (NCI-H460; first compound 0.1581 µM): 0.059 | relative viability (NCI-H460; first compound 0.5 µM): 0.0583
